Results published in EP4775577A1, “RAS INHIBITOR” (Tyligand Bioscience (Shanghai) Limited, priority 2023, dated 2025).
Like-named read-outs stand apart in the source and are kept apart here.

Key:
[1] = system: KRAS G12V mutant NCI-H727 cells; assay: Proliferation inhibition of NCI-H727 cells, 3D CellTiter-Glo assay (Method B); format: cell-based, human; conditions: Method B, 3D culture with 0.65% methylcellulose, 5 days, CTG, read-out: NCI-H727 IC50/nM
Method: NCI-H727 cells (Nanjing Kebai Biotechnology Co., Ltd., catalog number CBP60182, adherent, culture medium RPMI-1640+10%FBS (GIBCO, Cat#10091-148)) were cultured at 37°C, 5% CO2, and 95% humidity.
3D cell viability assay: Cells in the logarithmic growth phase were harvested and counted using a platelet counter. Cell viability was assessed using the trypan blue exclusion method to ensure a viability of over 90%. The 3D cell culture medium was prepared by adding 1% MC (methylcellulose, Sigma, Cat#M0512) to RPMI-1640 medium and 10% FBS. The cell concentration was adjusted to approximately 25,000 cells/mL using the 3D medium, and the methylcellulose (MC) content was set to 0.65%. Then, 80 µL of cell suspension was added to each 96-well clear, flat-bottomed, black-walled plate (Greiner, Cat# 655096). The cells in the 96-well plates were cultured overnight at 37°C and 5% CO2.
Drug preparation for IC50 assay: A 5-fold drug solution was prepared using culture medium. 20 µL of the drug solution was added to each well of a 96-well plate seeded with cells to achieve a working concentration of up to 10 µM, with a 3× dilution, and 9 concentrations. 2 replicate wells for each drug concentration were set. The cells in the drug-treated 96-well plates were cultured at 37°C and 5% CO2 for additional 5 days, then CTG assay (CellTiter-Glo® Luminescent Cell Viability Assay (Promega, Cat#G7573)) were performed.
The cell plate was equilibrated to room temperature for 30 minutes and the CTG reagent was thawed. 50 µL of CTG solution was added to each well for detection and the plate was shaken on an orbital shaker for 5 minutes to lyse the cells. The cell plate was then placed at room temperature for 25 minutes to stabilize the cryo-luminescence signal, and the cryo-luminescence value was read (EnVision® multi-plate reader, PerkinElmer#2105).
(§1) Data was analyzed using GraphPad Prism software. The dose-response-inhibition equation was used to fit the data to obtain the dose-response curve, and the IC50 value (nM) was calculated accordingly. [formula]

[2] = system: KRAS G12D mutant AGS cells; assay: Proliferation inhibition of AGS cells, CellTiter-Glo assay; format: cell-based, human; conditions: 3 days, CTG, read-out: AGS IC50/nM
Method: AGS cells (Nanjing Kebai Biotechnology Co., Ltd., catalog number CBP60476, adherent, culture medium (F12K Nutrient Mixture+10% FBS (GIBCO, Cat#10091-148) were cultured at 37°C, 5% CO2, and 95% humidity at a density of 1500 cells/well. Cells in the logarithmic growth phase were harvested and counted using a Countstar automated cell counter based on the classic trypan blue staining method to ensure cell viability was above 90%. The cell concentration was adjusted, and 80 µL of cell suspension was added to each 96-well clear flat-bottomed, black-walled plate (Greiner, Cat# 655090). The cells in the 96-well plates were then cultured at 37°C and 5% CO2.
Drug preparation for IC50 assay: A 5-fold drug solution was prepared using culture medium. 20 µL of the drug solution was added to each well of a 96-well plate seeded with cells to achieve a working concentration of up to 10 µM, with a 3 × dilution, and a total of 9 concentrations. 2 replicate wells for each drug concentration were set. The cells in the drug-treated 96-well plates were cultured at 37°C and 5% CO2 for additional 3 days and then CTG assay were performed.
The cell plate was equilibrated to room temperature for 30 minutes and the CTG reagent (CellTiter-Glo® Luminescent Cell Viability Assay (Promega, Cat# G7573)) was thawed. 50 µL of CTG solution was added to each well and the plate was shaken on an orbital shaker for 2 minutes to lyse the cells. The cell plate was placed at room temperature for 10 minutes to stabilize the cryo-luminescence signal and the cryo-luminescence value was read (EnVision® Multifunctional microplate reader, PerkinElmer #2105).
as §1

SMILES | IC50 [1] [nM] | IC50 [2] [nM] | IC50 ([1]; Homo sapiens, NCI-H727, 120 h) [nM] | IC50 ([2]; Homo sapiens, AGS, 72 h) [nM]
CN1CC/C(=C\F)[C@](C)(COc2nc(N3CCCn4nc(C(=O)N(C)C)cc4C3)c3cc(Cl)c(-c4c(F)ccc5sc(N)c(C#N)c45)c(F)c3n2)C1 (atropisomer, axis not shown; (Sa)) [Example 93B, (Sa)-5-(7-(2-amino-3-cyano-5-fluorobenzo[b]thiophene-4-yl)-6-chloro-8-fluoro-2-(((S,E)-4-(fluoromethylene)-1,3-dimethylpiperidine-3-yl)methoxy)quinazoline-4-yl)-N,N-dimethyl-5,6,7,8-tetrahydro-4H-pyrazolo[1,5-a][1,4]diazepine-2-formamide·formate] | 191 | 178 |  | 
CN1CC/C(=C\F)[C@](C)(COc2nc(N3CCCn4nc(C(=O)N(C)C)cc4C3)c3cc(Cl)c(-c4cccc5sc(N)c(C#N)c45)c(F)c3n2)C1 (atropisomer, axis not shown; (Sa)) [Example 94A, (Sa)-5-(7-(2-amino-3-cyanobenzo[b]thiophene-4-yl)-6-chloro-8-fluoro-2-(((S,E)-4-(fluoromethylene)-1,3-dimethylpiperidine-3-yl)methoxy)quinazoline-4-yl)-N,N-dimethyl-5,6,7,8-tetrahydro-4H-pyrazolo[1,5-a][1,4]diazepine-2-formamide·formate] |  |  | 9 | 3.3
CN1CC/C(=C\F)[C@](C)(COc2nc(N3CCCn4nc(C(=O)N(C)C)cc4C3)c3cc(/C=C\F)c(-c4cccc5sc(N)c(C#N)c45)c(F)c3n2)C1 (single isomer, unassigned) [Example 112B] |  |  | 11 | 5.3
CN1CC/C(=C\F)[C@](C)(COc2nc(N3CCCn4nc(C(=O)N(C)C)c(C#N)c4C3)c3cc(C(F)(F)F)c(-c4cccc5sc(N)c(C#N)c45)c(F)c3n2)C1 (single isomer, unassigned) [Example 119B] |  |  | 6.9 | < 1.5
CN1CC/C(=C\F)[C@](C)(COc2nc(N3CCCn4nc(C(=O)N(C)C)c(Cl)c4C3)c3cc(C4CC4)c(-c4c(F)ccc5sc(N)c(C#N)c45)c(F)c3n2)C1 (single isomer, unassigned) [Example 161A] |  | 2.4 | 4.3 | 
CCc1cc2c(N3Cc4cc(C(=O)N(C)C)nn4CC[C@@H]3C)nc(OC[C@]3(C)CN(C)CC/C3=C\F)nc2c(F)c1-c1c(C)ccc2[nH]ncc12 (single isomer, unassigned) [Example 172A] |  |  | 419 | 199
[2H]C([2H])([2H])N1CC/C(=C\F)[C@](C)(COc2nc(N3Cc4c(Cl)c(C(=O)N(C)C)nn4CC[C@@H]3C)c3cc(CC)c(-c4c(F)ccc5sc(N)c(C#N)c45)c(F)c3n2)C1 (single isomer, unassigned) [Example 182A] |  |  | < 1.5 | 2
[2H]C([2H])([2H])N1CC/C(=C\F)[C@](C)(COc2nc(N3Cc4c(C)c(C(=O)N(C)C)nn4CC[C@@H]3C)c3cc(CC)c(-c4c(F)ccc5sc(N)c(C#N)c45)c(F)c3n2)C1 (single isomer, unassigned) [Example 183A] |  |  | < 1.5 | < 1.5
[2H]C([2H])([2H])N1CC/C(=C\F)[C@](C)(COc2nc(N3Cc4c(C#C)c(C(=O)N(C)C)nn4CC[C@@H]3C)c3cc(CC)c(-c4c(F)ccc5sc(N)c(C#N)c45)c(F)c3n2)C1 (single isomer, unassigned) [Example 184A] |  |  | 4.3 | 3.4
[2H]C([2H])([2H])N1CCC(=CF)C(C)(COc2nc(N3Cc4cc(C(=O)N(C([2H])([2H])[2H])C([2H])([2H])[2H])nn4CCC3C)c3cc(CC)c(-c4c(F)ccc5sc(N)c(C#N)c45)c(F)c3n2)C1 (single isomer, unassigned) [Example 185A] |  |  | < 1.5 | < 1.5
Cc1cc(N)nc(-c2c(Cl)cc3c(N4Cc5cc(C(=O)N(C)C)nn5CCC4C)nc(OCC4(C)CN(C)CCC4=CF)nc3c2F)c1C(F)(F)F (single isomer, unassigned) [Example 213A] |  |  | 43.1 | 49.6
COCc1cc2c(N3Cc4cc(C(=O)N(C)C)nn4CC[C@@H]3C)nc(OC[C@]3(C)CN(C)CC/C3=C\F)nc2c(F)c1-c1c(F)ccc2sc(N)c(C#N)c12 (single isomer, unassigned) [Example 226A] |  |  | 39.8 | 19.7
CCN1CC/C(=C\F)[C@](C)(COc2nc(N3Cc4c(COC)c(C(=O)N(C)C)nn4CC[C@@H]3C)c3cc(C(F)(F)F)c(-c4ncc(F)c5sc(N)c(C#N)c45)c(F)c3n2)C1 (single isomer, unassigned) [Example 230A] |  |  | 2.2 | 1.7
CCN1CC/C(=C\F)[C@](C)(COc2nc(N3Cc4cc(C(=O)N(C)C)nn4CC[C@@H]3C)c3cc(Cl)c(-c4ncc(F)c5sc(N)c(C#N)c45)c(F)c3n2)C1 (single isomer, unassigned) [Example 231A] |  |  | 4.4 | 2.5
CCN1CC/C(=C\F)[C@](C)(COc2nc(N3Cc4c(OC)c(C(=O)N(C)C)nn4CC[C@@H]3C)c3cc(Cl)c(-c4c(F)ccc5sc(N)c(C#N)c45)c(F)c3n2)C1 (single isomer, unassigned) [Example 234A] |  |  | < 1.5 | < 1.5
CCN1CC/C(=C\F)[C@](C)(COc2nc(N3Cc4c(COC)c(C(=O)N(C)C)nn4CC[C@@H]3C)c3cc(Cl)c(-c4ncc(F)c5sc(N)c(C#N)c45)c(C)c3n2)C1 (single isomer, unassigned) [Example 238A] |  |  | 6.5 | 11.5
CCN1CC/C(=C\F)[C@](C)(COc2nc(N3Cc4cc(C(=O)N(C)C)nn4CC[C@@H]3C)c3cc(Cl)c(-c4c(F)ccc5sc(N)c(C#N)c45)c(C(F)F)c3n2)C1 (single isomer, unassigned) [Example 242A] |  |  | 6.3 | 5.4
CCN1CC/C(=C\F)[C@](C)(COc2nc(N3Cc4cc(C(=O)N(C)C)nn4CC[C@@H]3C)c3cc(C(F)(F)F)c(-c4c(F)ccc5sc(N)c(C#N)c45)c(F)c3n2)C1 (single isomer, unassigned) [Example 248A] |  |  | < 1.5 | < 1.5
CN1CC/C(=C\F)[C@](C)(COc2nc(N3CC[C@@H](C#N)[C@H](O)C3)c3cc(C(F)(F)F)c(-c4c(F)ccc5sc(N)c(C#N)c45)c(F)c3n2)C1 (single isomer, unassigned) [Example 252] |  |  | 2.1 | 41.5
CN1CC[C@H](C(F)F)[C@](C)(COc2nc(N3CCCn4nc(C(=O)N(C)C)cc4C3)c3cc(C(F)(F)F)c(-c4cccc5sc(N)c(C#N)c45)c(F)c3n2)C1 [Example 7, 5-(7-(2-Amino-3-cyanobenzo[b]thiophene-4-yl)-2-(((3S,4S)-4-(difluoromethyl)-1,3-dimethylpiperidine-3-yl)methoxy)-8-fluoro-6-(trifluoromethyl)quinazoline-4-yl)-N,N-dimethyl-5,6,7,8-tetrahydro-4H-pyrazolo[1,5-a][1,4]diazepine-2-formamide] |  |  | 13.1 | 6.7
CN1CC/C(=C\F)[C@](C)(COc2nc(N3CCCn4nc(C(=O)N(C)C)cc4C3)c3cc(C(F)(F)F)c(-c4cccc5sc(N)c(C#N)c45)c(F)c3n2)C1 [Example 8, 5-(7-(2-Amino-3-cyanobenzo[b]thiophene-4-yl)-8-fluoro-2-(((S,E)-4-(fluoromethylene)-1,3-dimethylpiperidine-3-yl)methoxy)-6-(trifluoromethyl)quinazoline-4-yl)-N,N-dimethyl-5,6,7,8-tetrahydro-4H-pyrazolo[1,5-a][1,4]diazepine-2-formamide] |  |  | 21.3 | 8.1
